Laboratory results published in PubChem BioAssay (NCI).
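Values below derive from 48-hour exposures of cells grown in 96-well plates, with endpoints linearly interpolated between the two concentrations bracketing the appropriate inhibition level. The concentration for 50% growth inhibition is given as GI50. Definition used: TGI = concentration required for complete inhibition of growth.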

Legend:
Experiment in all cases: NCI tumour cell line growth inhibition, 48 h
786-0 renal = tested on: 786-0 renal
COLO 205 colon = tested on: COLO 205 colon
HL-60(TB) leukemia = tested on: HL-60(TB) leukemia
HOP-62 NSCLC = tested on: HOP-62 NSCLC
HS 578T breast = tested on: HS 578T breast
NCI-H23 lung = tested on: NCI-H23 lung
PC-3 prostate = tested on: PC-3 prostate
SF-268 CNS = tested on: SF-268 CNS
T-47D breast = tested on: T-47D breast
SR leukemia = tested on: SR leukemia

| Compound | TGI (786-0 renal) [µM] | TGI (COLO 205 colon) [µM] | TGI (HL-60(TB) leukemia) [µM] | TGI (HOP-62 NSCLC) [µM] | TGI (HS 578T breast) [µM] | TGI (NCI-H23 lung) [µM] | TGI (PC-3 prostate) [µM] | TGI (SF-268 CNS) [µM] | TGI (T-47D breast) [µM] | TGI (SR leukemia) [µM] | GI50 (NCI-H23 lung) [µM] |
| --- | --- | --- | --- | --- | --- | --- | --- | --- | --- | --- | --- |
| CC[C@H](C)[C@H](NC(=O)N(CCC#N)CCN(CCN(C(=O)N[C@@H](Cc1ccccc1)C(=O)OC)c1ccccc1)C(=O)N[C@H](C(=O)OC)C(C)C)C(=O)OC | 17.1 | 52.6 | 4.24 | 44.9 | 86.6 | 40.1 | 47.7 | 44.4 | 47.2 |  |  |
| c1ccc2c(c1)nnn2CNc1ccc(N2CCCCC2)cc1 | > 100 | > 100 | > 100 | > 100 |  | > 100 |  | > 100 |  | > 100 |  |
| CCOC(=O)Oc1cc2ccsc2c2c1c1ccccc1n2C(=O)OCC | > 100 | > 100 |  | > 100 | > 100 | > 100 | > 100 | > 100 | > 100 | > 100 |  |
| C=C1CC[C@@]2(C)[C@@H]([C@@H]1C)[C@H]1CC[C@@H]3[C@@]4(C)CC[C@H](O)C(C)(C)[C@@H]4CC[C@@]3(C)[C@]1(C)C[C@@H]2O |  | > 100 | > 55.7 | 9.18 | 7.29 | 5.64 | 10.3 | 9.76 | 8.76 | > 100 |  |
| c1ccc(-c2csc3c2-n2cccc2C3N2CCCC2)cc1 (stereo not given) | > 100 |  | > 100 | > 100 | > 100 | > 100 | > 100 | 78.7 |  | > 100 |  |
| Oc1ccc(-c2c3ccccc3c(-c3ccc(O)cc3)c3ccccc23)cc1 | > 100 | > 100 | > 100 | > 100 |  | > 100 |  | > 100 |  | > 100 |  |
| O=[N+]([O-])c1ccc(CSc2nn(Cc3ccc([N+](=O)[O-])cc3)cc3ncnc2-3)cc1 | > 100 | > 100 | 46.4 | > 100 |  | > 100 | > 100 |  | > 100 |  |  |
| CC1(CO)C(O)CCC2(C)C1CCC1CC3CC12CCC3(O)CO (stereo not given) |  | > 100 | > 100 |  |  | > 100 |  | > 100 |  |  |  |
| Cc1ccc2nc(N)[nH]c(=O)c2c1Sc1ccncc1 | > 100 | > 100 | > 100 | > 100 |  | > 100 |  | > 100 |  | > 100 |  |
| N#C/C(=C\c1ccc(O)c(O)c1)c1c(C#N)c(N)nn1-c1ccccc1 | 21.1 | 61.1 | 32.7 | 40.8 |  | 25.3 |  | > 100 |  |  |  |
| O=C([CH-]C(=O)c1ccccc1)c1ccccc1.[C-]#[O+].[C-]#[O+].[Ir] |  |  |  |  |  | > 100 |  |  |  |  | 52.8 |
| CCOC(=O)c1c(N2CCCC2)[nH]c(=O)c(C(c2c(O)c(C(=O)OCC)c(N3CCCC3)[nH]c2=O)C(C)C)c1O | > 100 | > 100 |  | > 100 | > 100 | > 100 | > 100 | > 100 | > 100 | > 100 |  |
| O=C(N/N=C(/COc1ccccc1)N=Cc1ccncc1)c1ccncc1 | > 100 | > 100 | > 100 | > 100 | > 100 | > 100 | > 100 | > 100 | > 100 |  |  |
| O=C(Nc1ccccc1)c1cc2ccccc2c(N=Nc2cccc([N+](=O)[O-])c2)c1O | > 100 | > 100 |  | > 100 | 99.1 | > 100 | > 100 | > 100 | > 100 | > 100 |  |
| COc1c(C)c(C/C=C(\C)CC/C=C(\C)CC/C=C(\C)CCC=C(C)C)c(OC)c(OC)c1OC | > 100 | > 100 |  | > 100 | > 100 | > 100 | > 100 | > 100 |  | > 100 |  |
| CCN(CC)CC1CCCCN1CC(=O)N1c2cc(Cl)ccc2NC(=O)CC1C (stereo not given) | > 100 | > 100 | > 100 | > 100 |  | > 100 |  | > 100 |  | > 100 |  |
| Cc1ccc(Nc2c3c(c(C#N)c4nc5ccccc5n24)CCCC3)cc1 | > 100 | 50.6 | 25.5 |  | > 100 | > 100 | 87.2 | > 100 | > 100 |  |  |
| CC(=O)Nc1ccc(NC(=O)CC(=O)Nc2ccc(NC(C)=O)cc2)cc1 | > 100 | > 100 | > 100 |  | > 100 | > 100 | > 100 | > 100 | > 100 | > 100 |  |
| CC(=O)Nc1ccc(-c2nnc(SCC(=O)Nc3cccc(C)c3)o2)cc1 | 26.4 | 28 | > 100 | 73.2 |  | 20.4 |  | > 100 |  | > 100 |  |
| Cc1ccc(S(=O)(=O)NC(=O)C2S(=O)(=O)OCCOS2(=O)=O)cc1 | > 100 | > 100 | > 100 | > 100 |  | > 100 |  | > 100 |  | > 100 |  |
| CN(C(=O)[C@H](NC(=O)OCc1ccccc1)c1ccccc1)C1CCCCC1N1CCCC1 (stereo not given in full) | > 100 | > 100 |  | > 100 | 77.2 | > 100 | > 100 | > 100 | > 100 | 87.6 |  |
| COC(CNC(=O)CNC(=O)c1ccc(C(F)(F)F)cc1)OC | > 100 | > 100 | > 100 |  | > 100 | > 100 | > 100 | > 100 | > 100 | > 100 |  |
| CC(=O)N1C(C(=O)NN2CCOCC2)CSC1c1ccccc1 (stereo not given) | > 100 | > 100 |  | > 100 | > 100 | > 100 | > 100 | > 100 | > 100 | > 100 |  |
| CCCCn1c(-c2ccccc2)cs/c1=N\N=C1C=C(C(C)(C)C)C(=O)C(C(C)(C)C)=C1 | > 100 | > 100 | > 100 | > 100 |  | > 100 |  | > 100 |  | > 100 |  |
| CC(=N/NC(=S)N1CCCCCC1)/C(C)=N\NC(=S)N1CCCCCC1 | 9.79 | 38.5 |  | 15.2 | 11.8 | 12.6 | 23.8 | 11.2 | 3.54 |  |  |
